{"source": "patent US9029518B2", "about": "“Method of extracting kaempferol-based antioxidants from Solenostemma arghel” (priority 2012, dated 2015)", "key": {"[1]": {"system": "carrageenan-induced rat paw edema", "assay": "Carrageenan-induced rat paw edema (anti-inflammatory)", "format": "in vivo", "description": "The total alcohol (ethanol) extract was given at doses of 0.25, 0.5 and 1 g/kg, respectively, and fractions were given in doses of 0.25 g/kg. […]"}, "[2]": {"system": "acetic acid-induced writhes in mice", "assay": "Acetic acid-induced writhes in mice (peripheral analgesic activity)", "format": "in vivo"}, "[3]": {"system": "response of mice to hot plate thermal stimulation", "assay": "Hot plate test (central analgesic activity)", "format": "in vivo", "settings": "for Latency (mean latency time until licking or jumping): time 0 min, hot plate 55° C.; for central analgesic activity compared with methamizol 0.05 g/kg: total ethanol extract 0.25, 0.5 and 1 g/kg, fractions 0.25 g/kg, C1 and C2 0.1 g/kg, I.P.", "method": "The total alcoholic extract was given at doses of 0.25, 0.5 and 1.0 g/kg, respectively, fractions were given at doses of 0.25 g/kg, and compounds were given at doses of 0.1 g/kg. The effect of the alcoholic extract, fractions and isolated compounds are shown in FIGS. 3A, 3B and 3C, respectively, and given below in Table 3.\nFIGS. 3A, 3B and 3C graphically illustrate the mean latency time (in seconds) until licking or jumping. This was recorded with mice being placed in a glass beaker, which was placed on a hot plate, which was maintained at 55° C. Measurements were taken 20, 60 and 90 minutes, respectively, after intraperitoneal injection of fractions (0.25 g/kg) and the isolated compounds (0.1 g/kg) from Solenostemma arghel, compared with the control group and methamizol.\nThis effect started after 20 min. and persisted for 90 min. after I.P. administration of the extracts."}, "[4]": {"assay": "DPPH free radical scavenging activity", "format": "biochemical", "method": "The antipyretic activity was estimated using Brewer's yeast-induced hyperpyrexia in rats. Both water and total alcohol extracts were separately given orally at doses of 0.25, 0.5 and 1.0 g/kg, respectively. The antioxidant activity was evaluated using 2,2-diphenyl-1-picrylhydrazyl (DPPH) free radical scavenging activity. A 0.05 ml sample of the test compound was added to a methanol solution of DPPH (100 μM 2.95 ml) dissolved in methanol. The compound was added at different concentrations of 2, 4, 6, 8 and 10 mg/ml, respectively, as well as for water, and the total ethanol extracts and fractions. Concentrations of 1, 2, 3, 4 and 5 mg/ml were used for C1 and C2. Equal amounts of methanol were added to the control. Absorbance was recorded at 517 nm at regular intervals of 15 s for 5 min. Ascorbic acid (100 μM) was used as a standard.\nThe results are shown in Table 4 below, and in FIGS. 4A and 4B.\nWith regard to antioxidant activity (in vitro), all extracts were tested at concentrations of 2, 4, 6, 8 and 10 mg/ml."}}}
{"compound": "O=c1c(O[C@@H]2O[C@H](CO)[C@@H](O)[C@H](O)[C@H]2O)c(-c2ccc(O[C@@H]3O[C@H](CO)[C@@H](O)[C@H](O)[C@H]3O)cc2)oc2cc(O)cc(O)c12", "note": "[C1, kaempferol-3, 4′-diglucoside]", "values": [{"measurement": "% inhibition of control", "setting": "[1]; dose 0.1 g/kg oral, time 1 h", "value": 59.06, "unit": "%"}, {"measurement": "% inhibition of control", "setting": "[1]; dose 0.1 g/kg oral, time 2 h", "value": 71.31, "unit": "%"}, {"measurement": "% inhibition of control", "setting": "[1]; dose 0.1 g/kg oral, time 3 h", "value": 53.93, "unit": "%"}, {"measurement": "% Protection of control", "setting": "[2]; dose 0.1 g/kg oral", "value": 59.02, "unit": "%"}, {"measurement": "Latency (mean latency time until licking or jumping)", "setting": "[3]; dose 0.1 g/kg I.P.", "value": "5.50 ± 0.85", "unit": "s"}, {"measurement": "central analgesic activity compared with methamizol 0.05 g/kg", "setting": "[3]", "value": "significantly (P<0.05) greater than that of methamizol"}, {"measurement": "Radical scavenging activity (%) ± S.D.", "setting": "[4]; concentration 1 mg/ml", "value": "26.51 ± 1.01", "unit": "%"}, {"measurement": "Radical scavenging activity (%) ± S.D.", "setting": "[4]; concentration 2 mg/ml", "value": "37.94 ± 0.98", "unit": "%"}, {"measurement": "Radical scavenging activity (%) ± S.D.", "setting": "[4]; concentration 3 mg/ml", "value": "52.63 ± 0.99", "unit": "%"}, {"measurement": "Radical scavenging activity (%) ± S.D.", "setting": "[4]; concentration 4 mg/ml", "value": "67.72 ± 1.12", "unit": "%"}, {"measurement": "Radical scavenging activity (%) ± S.D.", "setting": "[4]; concentration 5 mg/ml", "value": 83.40, "unit": "%"}]}
{"compound": "Cc1c(N(C)CS(=O)(=O)[O-])c(=O)n(-c2ccccc2)n1C.[Na+]", "note": "[Methamizol, methamizol, reference compound]", "values": [{"measurement": "% Protection of control", "setting": "[2]; dose 0.05 g/kg", "value": 52.32, "unit": "%"}, {"measurement": "Latency (mean latency time until licking or jumping)", "setting": "[3]; dose 0.05 g/kg", "value": "5.26 ± 0.94", "unit": "s"}]}
{"compound": "O=C(O)Cc1ccccc1Nc1c(Cl)cccc1Cl", "note": "[Diclofenac sodium, diclofenac sodium, reference compound]", "values": [{"measurement": "% inhibition of control", "setting": "[1]; dose 0.03 g/kg, time 0 h (so in the source)", "value": 30.24, "unit": "%"}, {"measurement": "% inhibition of control", "setting": "[1]; dose 0.03 g/kg, time 2 h", "value": 48.42, "unit": "%"}, {"measurement": "% inhibition of control", "setting": "[1]; dose 0.03 g/kg, time 3 h", "value": 54.69, "unit": "%"}]}
{"compound": "O=C1O[C@H]([C@@H](O)CO)C(O)=C1O", "note": "[ascorbic acid, reference compound]", "values": [{"measurement": "scavenging activity towards DPPH radicals", "setting": "[4]; concentration 100 μM (standard)", "value": 87.8, "unit": "%"}]}
{"compound": "C[C@H]1O[C@H](OC[C@H]2O[C@@H](Oc3c(-c4ccc(O)cc4)oc4cc(O)cc(O)c4c3=O)[C@H](O)[C@@H](O)[C@@H]2O)[C@@H](O)[C@@H](O)[C@@H]1O", "note": "[C2, kaempferol-3-rutinoside]", "values": [{"measurement": "% inhibition of control", "setting": "[1]; dose 0.1 g/kg oral, time 1 h", "value": 62.50, "unit": "%"}, {"measurement": "% inhibition of control", "setting": "[1]; dose 0.1 g/kg oral, time 2 h", "value": 70.02, "unit": "%"}, {"measurement": "% inhibition of control", "setting": "[1]; dose 0.1 g/kg oral, time 3 h", "value": 53.60, "unit": "%"}, {"measurement": "% Protection of control", "setting": "[2]; dose 0.1 g/kg oral", "value": 68.90, "unit": "%"}, {"measurement": "Latency (mean latency time until licking or jumping)", "setting": "[3]; dose 0.1 g/kg I.P.", "value": "5.80 ± 0.79", "unit": "s"}, {"measurement": "central analgesic activity compared with methamizol 0.05 g/kg", "setting": "[3]", "value": "significantly (P<0.05) greater than that of methamizol"}, {"measurement": "Radical scavenging activity (%) ± S.D.", "setting": "[4]; concentration 1 mg/ml", "value": "30.28 ± 1.10", "unit": "%"}, {"measurement": "Radical scavenging activity (%) ± S.D.", "setting": "[4]; concentration 2 mg/ml", "value": "39.64 ± 0.88", "unit": "%"}, {"measurement": "Radical scavenging activity (%) ± S.D.", "setting": "[4]; concentration 3 mg/ml", "value": "65.30 ± 0.98", "unit": "%"}, {"measurement": "Radical scavenging activity (%) ± S.D.", "setting": "[4]; concentration 4 mg/ml", "value": "70.12 ± 1.01", "unit": "%"}, {"measurement": "Radical scavenging activity (%) ± S.D.", "setting": "[4]; concentration 5 mg/ml", "value": 86.50, "unit": "%"}]}
